What all share (assay): relative viability (nuclei count vs DMSO), 5 days (fraction); higher = more cells survive
Compound in assay [1]: CCC1=CN=CN=C1N2CCN(CC2)CC3=NC4=C(N3)C=C(C=C4)C(F)(F)F + CC1(C)CCC(c2ccc(Cl)cc2)=C(CN2CCN(c3ccc(C(=O)NS(=O)(=O)c4ccc(N[C@H](CCN5CCOCC5)CSc5ccccc5)c(S(=O)(=O)C(F)(F)F)c4)cc3)CC2)C1 [Navitoclax] (partner 0.5 µM)
An outline of the steps:
(§1)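 Lung cancer cell lines, seeded in 1536-well plates, were treated the following day by pin tool with a single drug or with five library-drug doses (not always all listed) in √10 steps on top of a fixed anchor-drug dose. Cells were fixed and nuclei stained in one step after 5 days, and nuclei were counted. Relative viability is the nuclei count for treated wells divided by that for vehicle wells, reported as medians of duplicate plates.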

Compound in assay [2]: CCC1=CN=CN=C1N2CCN(CC2)CC3=NC4=C(N3)C=C(C=C4)C(F)(F)F + Cc1cc(Nc2cc(N3CCN(C)CC3)nc(Sc3ccc(NC(=O)C4CC4)cc3)n2)n[nH]1 [Tozasertib] (partner 0.1 µM)
A digest of the protocol:
as §1

Compound in assay [3]: CCC1=CN=CN=C1N2CCN(CC2)CC3=NC4=C(N3)C=C(C=C4)C(F)(F)F + N=C(N)NC(=N)NCCc1ccccc1 [Phenformin] (partner 250 µM)
An outline of the steps:
as §1

Compound in assay [4]: CCn1c(-c2nonc2N)nc2cnc(Oc3cccc(NC(=O)c4ccc(OCCN5CCOCC5)cc4)c3)cc21 + CS(=O)(=O)N1CCN(Cc2cc3nc(-c4cccc5[nH]ncc45)nc(N4CCOCC4)c3s2)CC1 [Pictilisib] (partner 1 µM)
A digest of the protocol: as §1

For one cell line, relative viability results are on record in the supplement of paper PMC10307832.

Turning to UMC-11, the relative viability in assay [1] (first compound 0.04 µM) is 0.319; in assay [1] (first compound 0.1265 µM), 0.304; in assay [1] (first compound 0.4 µM), 0.312; in assay [1] (first compound 1.265 µM), 0.284; in assay [1] (first compound 4 µM) it was 0.305; in assay [2] (first compound 0.04 µM) it was 0.197. Further, the relative viability in assay [2] (first compound 0.1265 µM) was found to be 0.216; in assay [2] (first compound 0.4 µM) it was 0.216; in assay [2] (first compound 1.265 µM) it was 0.204; in assay [2] (first compound 4 µM), 0.214; in assay [3] (first compound 0.04 µM), 0.327; in assay [3] (first compound 0.1265 µM) it was 0.3. Also, the relative viability in assay [3] (first compound 0.4 µM) was 0.319; in assay [3] (first compound 1.265 µM) it was 0.279; in assay [3] (first compound 4 µM), 0.294; in assay [4] (first compound 0.04 µM) it was 0.908; in assay [4] (first compound 0.1265 µM), 0.751; in assay [4] (first compound 0.4 µM), 0.464. Moreover, the relative viability in assay [4] (first compound 1.265 µM) turned out to be 0.241; in assay [4] (first compound 4 µM), 0.188.
